# Results taken from the supplement of paper PMC10307832.
# Compound: Cc1cnc(Nc2ccc(OCCN3CCCC3)cc2)nc1Nc1cccc(S(=O)(=O)NC(C)(C)C)c1 [Fedratinib] + C[C@@H](Oc1cc(-c2cnn(C3CCNCC3)c2)cnc1N)c1c(Cl)ccc(F)c1Cl [Crizotinib] (partner 1 µM)
# Experiment: relative viability (nuclei count vs DMSO), 5 days (fraction); higher = more cells survive
# Conditions: first compound 0.1 µM
# Procedure, shortened: (§1)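 After 5 days of treatment, lung cancer cells in 1536-well plates were fixed and stained in a single step (final 0.05% Triton X-100, 1% formaldehyde, 1 ug/ml Hoechst) and their nuclei counted on 4× images. Treatment had been applied by pin tool the day after seeding as one drug alone or as a fixed anchor-drug dose with five library-drug doses (not always all listed) in √10 steps. Relative viability is the nuclei count of treated wells divided by that of vehicle wells, and values are medians of duplicate plates.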
row,Cell Line,relative viability
1,NCI-H2228,0.528
2,NCI-H1792,1.26
3,NCI-H1355,1.06
4,NCI-H3122,0.317
5,NCI-H1437,0.999
6,NCI-H1755,0.858
7,NCI-H2023,0.585
8,HCC-15,0.839
9,PC-14,0.926
10,EKVX,1.05
11,LC-2-ad,0.474
12,NCI-H1944,1.12
13,NCI-H1975,0.802
14,RERF-LC-KJ,0.834
15,NCI-H358,0.427
16,PC-3 [JPC-3],0.998

# Same assay, conditions: first compound 0.3162 µM
row,Cell Line,relative viability
1,A-427,0.755
2,NCI-H441,0.623
3,NCI-H661,0.948
4,NCI-H1734,0.692
5,NCI-H460,0.767
6,NCI-H2347,0.667
7,SK-LU-1,0.836
8,201T,1.04
9,NCI-H1915,0.866
10,HCC-827,0.963
11,LXF-289,0.79
12,NCI-H23,0.475
13,NCI-H647,1.09
14,CAL-12T,0.588
15,NCI-H1651,0.875
16,EPLC-272H,0.87
17,NCI-H2228,0.46

row,Cell Line,relative viability
1,NCI-H1792,0.972
2,NCI-H1355,1.04
3,NCI-H3122,0.235
4,NCI-H1437,0.883
5,NCI-H1755,0.862
6,NCI-H2023,0.715
7,HCC-15,0.762
8,PC-14,0.874
9,EKVX,0.889
10,LC-2-ad,0.444
11,NCI-H1944,1.09
12,NCI-H1975,0.928
13,RERF-LC-KJ,0.883
14,NCI-H358,0.608
15,NCI-H650,0.682
16,PC-3 [JPC-3],0.944

# Same assay, conditions: first compound 1 µM
row,Cell Line,relative viability
1,A-427,0.686
2,NCI-H441,0.619
3,NCI-H661,1.04
4,NCI-H1734,0.629
5,NCI-H460,0.812
6,NCI-H2347,0.679
7,SK-LU-1,0.584
8,201T,0.99
9,NCI-H1915,0.777
10,HCC-827,0.953
11,LXF-289,0.804
12,NCI-H23,0.41
13,NCI-H647,0.584
14,CAL-12T,0.322
15,NCI-H1651,0.808
16,EPLC-272H,0.757
17,NCI-H2228,0.392

row,Cell Line,relative viability
1,NCI-H1792,0.854
2,NCI-H1355,1.07
3,NCI-H3122,0.265
4,NCI-H1437,0.922
5,NCI-H1755,0.802
6,NCI-H2023,0.58
7,HCC-15,0.71
8,PC-14,0.92
9,EKVX,0.958
10,LC-2-ad,0.446
11,NCI-H1944,1.04
12,NCI-H1975,0.663
13,RERF-LC-KJ,0.786
14,NCI-H358,0.374
15,NCI-H650,0.668
16,PC-3 [JPC-3],0.985

# Compound: COC1=CC=C(C=C1)COC2=C(C=C(C=C2)CC3=CN=C(N=C3N)N)OC [GW-2580] + CC(=O)Nc1cccc(-n2c(=O)n(C3CC3)c(=O)c3c(Nc4ccc(I)cc4F)n(C)c(=O)c(C)c32)c1 [Trametinib] (partner 0.02 µM)
# Experiment: as above
# Conditions: first compound 0.08 µM
# Procedure, shortened: as §1
row,Cell Line,relative viability
1,A-427,0.785
2,NCI-H441,0.409
3,NCI-H661,0.678
4,NCI-H1734,0.765
5,NCI-H460,0.286
6,NCI-H2347,0.294
7,SK-LU-1,0.498
8,201T,0.76
9,NCI-H1915,0.312
10,HCC-827,0.555
11,LXF-289,0.724
12,NCI-H23,0.398
13,NCI-H647,0.474
14,CAL-12T,0.33
15,NCI-H1651,0.795
16,EPLC-272H,0.281
17,NCI-H2228,0.483

row,Cell Line,relative viability
1,NCI-H1792,0.49
2,NCI-H1355,0.469
3,NCI-H3122,0.305
4,NCI-H1437,0.524
5,NCI-H1755,0.786
6,NCI-H2023,0.523
7,HCC-15,0.393
8,PC-14,0.806
9,EKVX,0.337
10,LC-2-ad,0.883
11,NCI-H1944,0.463
12,NCI-H1975,0.34
13,RERF-LC-KJ,0.821
14,NCI-H358,0.149
15,NCI-H650,0.945
16,PC-3 [JPC-3],0.7

# Same assay, conditions: first compound 0.8 µM
row,Cell Line,relative viability
1,A-427,0.675
2,NCI-H441,0.463
3,NCI-H661,0.566
4,NCI-H1734,0.69
5,NCI-H460,0.168
6,NCI-H2347,0.277
7,SK-LU-1,0.437
8,201T,0.753
9,NCI-H1915,0.288
10,HCC-827,0.552
11,LXF-289,0.708
12,NCI-H23,0.371
13,NCI-H647,0.469
14,CAL-12T,0.284
15,NCI-H1651,0.849
16,EPLC-272H,0.273
17,NCI-H2228,0.51

row,Cell Line,relative viability
1,NCI-H1792,0.502
2,NCI-H1355,0.502
3,NCI-H3122,0.264
4,NCI-H1437,0.571
5,NCI-H1755,0.838
6,NCI-H2023,0.639
7,HCC-15,0.412
8,PC-14,0.675
9,EKVX,0.474
10,LC-2-ad,0.995
11,NCI-H1944,0.387
12,NCI-H1975,0.38
13,RERF-LC-KJ,0.953
14,NCI-H358,0.139
15,NCI-H650,1.06
16,PC-3 [JPC-3],0.674

# Same assay, conditions: first compound 2.53 µM
row,Cell Line,relative viability
1,A-427,0.648
2,NCI-H441,0.483
3,NCI-H661,0.516
4,NCI-H1734,0.695
5,NCI-H460,0.0886
6,NCI-H2347,0.266
7,SK-LU-1,0.375
8,201T,0.754
9,NCI-H1915,0.251
10,HCC-827,0.483
11,LXF-289,0.688
12,NCI-H23,0.404
13,NCI-H647,0.406
14,CAL-12T,0.356
15,NCI-H1651,0.786
16,NCI-H2228,0.364

row,Cell Line,relative viability
1,NCI-H1792,0.388
2,NCI-H1355,0.35
3,NCI-H3122,0.18
4,NCI-H1437,0.448
5,NCI-H1755,0.777
6,NCI-H2023,0.541
7,HCC-15,0.337
8,PC-14,0.585
9,EKVX,0.461
10,LC-2-ad,0.923
11,NCI-H1944,0.336
12,NCI-H1975,0.306
13,RERF-LC-KJ,0.769
14,NCI-H358,0.131
15,NCI-H650,0.953
16,PC-3 [JPC-3],0.685

# Same assay, conditions: first compound 8 µM
row,Cell Line,relative viability
1,A-427,0.704
2,NCI-H441,0.374
3,NCI-H661,0.504
4,NCI-H1734,0.647
5,NCI-H460,0.187
6,NCI-H2347,0.268
7,SK-LU-1,0.518
8,201T,0.748
9,NCI-H1915,0.279
10,HCC-827,0.568
11,LXF-289,0.651
12,NCI-H23,0.395
13,NCI-H647,0.479
14,CAL-12T,0.436
15,NCI-H1651,0.807
16,EPLC-272H,0.32
17,NCI-H2228,0.511

row,Cell Line,relative viability
1,NCI-H1792,0.337
2,NCI-H1355,0.443
3,NCI-H3122,0.234
4,NCI-H1437,0.415
5,NCI-H1755,0.702
6,NCI-H2023,0.577
7,HCC-15,0.307
8,PC-14,0.637
9,EKVX,0.345
10,LC-2-ad,0.816
11,NCI-H1944,0.377
12,NCI-H1975,0.275
13,RERF-LC-KJ,0.82
14,NCI-H358,0.132
15,NCI-H650,0.907
16,PC-3 [JPC-3],0.745
